# From ChEMBL document CHEMBL4251606, “Design and characterization of α-lipoic acyl shikonin ester twin drugs as tubulin and PDK1 dual inhibitors” (Eur J Med Chem, 2018)
# Activity calls are given as the source filed them. The calls are words filed in the database; no cut-off is given here.
# Legend:
# HeLa [1] = experiment: Induction of apoptosis in human HeLa cells assessed as necrotic cells at 6 uM after 12 hrs by Annexin V-APC/propidium iodide staining-based FACScan flow cytometric analysis (reference value: 0.725%); assay type: functional
# HeLa [2] = experiment: Induction of apoptosis in human HeLa cells assessed as late apoptotic cells at 6 uM after 12 hrs by Annexin V-APC/propidium iodide staining-based FACScan flow cytometric analysis (reference value: 3.84%); assay type: functional
# HeLa [3] = experiment: Induction of apoptosis in human HeLa cells assessed as late apoptotic cells by measuring FL3-H+ cells at 2.8 uM after 24 hrs by propidium iodide staining-based FACScan flow cytometric analysis (reference value: 2.14%); assay type: functional
# Homo sapiens = species on record: Homo sapiens; experiment: Inhibition of microtubule polymerization (unknown origin) at 4 uM after 24 hrs by immunoblot
# [4] = target: [Pyruvate dehydrogenase (acetyl-transferring)] kinase isozyme 1, mitochondrial (Homo sapiens) (UniProt Q15118); experiment: Inhibition of PDK1 in human HeLa cells assessed as increase in PDH-E1 alpha expression at 6 uM by Western blot analysis; assay type: cell-based
# [5] = target: [Pyruvate dehydrogenase (acetyl-transferring)] kinase isozyme 1, mitochondrial (Homo sapiens) (UniProt Q15118); experiment: Inhibition of PDK1 in human HeLa cells assessed as increase in PDH-E1 alpha expression up to 8 uM by Western blot analysis; assay type: cell-based
# HeLa [6] = experiment: Induction of apoptosis in human HeLa cells assessed as late apoptotic cells by measuring FL3-H+ cells at 5.6 uM after 24 hrs by propidium iodide staining-based FACScan flow cytometric analysis (reference value: 2.14%); assay type: functional
# HEK-293T = experiment: Antiproliferative activity against human 293T cells after 24 hrs by MTT assay; assay type: cell-based
# Mus musculus [7] = experiment: Toxicity in nude mouse xenografted with human HeLa cells assessed as loss in body weight at 0.5 to 2 mg/kg, ip administered once in every 2 days for 15 days; assay type: organism-based; conditions: in vivo
# HeLa [8] = experiment: Cell cycle arrest in human HeLa cells assessed as accumulation of cells at S phase at 4 uM after 24 hrs by propidium iodide staining-based FACScan flow cytometric analysis (reference value: 20.16%); assay type: functional
# Mus musculus [9] = experiment: Inhibition of PDK1 in mouse xenografted with human HeLa cells assessed as upregulation of PDH-E1 alpha expression in tumor tissue at 1 to 2 mg/kg, ip administered once in every 2 days for 15 days by immunohistochemistry; assay type: functional, organism-based
# HeLa [10] = experiment: Induction of apoptosis in human HeLa cells assessed as late apoptotic cells at 2 uM after 24 hrs by Annexin V-APC/propidium iodide staining-based FACScan flow cytometric analysis (reference value: 7.22%); assay type: functional
# HeLa [11] = experiment: Induction of apoptosis in human HeLa cells assessed as increase in caspase-3 cleavage up to 8 uM after 24 hrs by Western blot analysis; assay type: functional, cell-based
# HeLa [12] = experiment: Cell cycle arrest in human HeLa cells assessed as accumulation of cells at G2/M phase at 8 uM after 24 hrs by propidium iodide staining-based FACScan flow cytometric analysis (reference value: 16.82%); assay type: functional
# HeLa [13] = experiment: Cell cycle arrest in human HeLa cells assessed as accumulation of cells at S phase at 2 uM after 24 hrs by propidium iodide staining-based FACScan flow cytometric analysis (reference value: 20.16%); assay type: functional
# HeLa [14] = experiment: Cell cycle arrest in human HeLa cells assessed as accumulation of cells at G2/M phase at 4 uM after 24 hrs by propidium iodide staining-based FACScan flow cytometric analysis (reference value: 16.82%); assay type: functional
# HeLa [15] = experiment: Reduction in lactate production in human HeLa cells at 2 to 8 uM; assay type: functional, cell-based
# HeLa [16] = experiment: Induction of apoptosis in human HeLa cells assessed as late apoptotic cells by measuring FL3-H+ cells at 2 uM after 12 hrs by propidium iodide staining-based flow cytometric analysis (reference value: 3.66%); assay type: functional
# HeLa [17] = experiment: Cell cycle arrest in human HeLa cells assessed as accumulation of cells at S phase at 8 uM after 24 hrs by propidium iodide staining-based FACScan flow cytometric analysis (reference value: 20.16%); assay type: functional
# HeLa [18] = experiment: Antitumor activity against human HeLa cells xenografted in nude mouse assessed as reduction in tumor size at 1 mg/kg, ip administered once in every 2 days for 15 days relative to control; assay type: functional, organism-based
# HeLa [19] = experiment: Induction of mitochondrial membrane potential loss in human HeLa cells assessed as increase in green fluorescence at 2 to 4 uM by JC-1 staining-based fluorescence microscopic analysis; assay type: functional, cell-based
# [20] = target: [Pyruvate dehydrogenase (acetyl-transferring)] kinase isozyme 1, mitochondrial (Homo sapiens) (UniProt Q15118); experiment: Inhibition of PDK1 in human HeLa cells assessed as decrease in PDH-E1 alpha p-ser232 expression up to 8 uM by Western blot analysis; assay type: cell-based
# L02 = experiment: Antiproliferative activity against human LO2 cells after 24 hrs by MTT assay; assay type: cell-based; conditions: L02, 24 h
# [21] = target: [Pyruvate dehydrogenase (acetyl-transferring)] kinase isozyme 1, mitochondrial (Homo sapiens) (UniProt Q15118); experiment: Inhibition of PDK1 in human HeLa cells assessed as decrease in PDH-E1 alpha p-ser300 expression up to 8 uM by Western blot analysis; assay type: cell-based
# HeLa [22] = experiment: Induction of apoptosis in human HeLa cells assessed as decrease in Bcl2 expression up to 8 uM after 24 hrs by Western blot analysis; assay type: functional, cell-based
# HeLa [23] = experiment: Induction of apoptosis in human HeLa cells assessed as late apoptotic cells by measuring FL3-H+ cells at 6 uM after 12 hrs by propidium iodide staining-based FACScan flow cytometric analysis (reference value: 2.13%); assay type: functional
# HeLa [24] = experiment: Induction of apoptosis in human HeLa cells assessed as late apoptotic cells by measuring FL3-H+ cells at 6 uM after 24 hrs by propidium iodide staining-based FACScan flow cytometric analysis (reference value: 2.13%); assay type: functional
# [25] = target: [Pyruvate dehydrogenase (acetyl-transferring)] kinase isozyme 1, mitochondrial (Homo sapiens) (UniProt Q15118); experiment: Inhibition of PDK1 in human HeLa cells assessed as decrease in PDH-E1 alpha p-ser293 expression up to 8 uM by Western blot analysis; assay type: cell-based
# HeLa [26] = experiment: Induction of apoptosis in human HeLa cells assessed as early apoptotic cells at 6 uM after 24 hrs by Annexin V-APC/propidium iodide staining-based FACScan flow cytometric analysis (reference value: 2.45%); assay type: functional
# HeLa [27] = experiment: Induction of apoptosis in human HeLa cells assessed as viable cells at 6 uM after 12 hrs by Annexin V-APC/propidium iodide staining-based FACScan flow cytometric analysis (reference value: 93%); assay type: functional; conditions: read-out: Activity
# HeLa [28] = experiment: Induction of apoptosis in human HeLa cells assessed as necrotic cells at 6 uM after 24 hrs by Annexin V-APC/propidium iodide staining-based FACScan flow cytometric analysis (reference value: 0.725%); assay type: functional
# HeLa [29] = experiment: Induction of mitochondrial membrane potential loss in human HeLa cells assessed as cells with low membrane potential at 4 uM after 12 hrs by JC-1 staining-based flow cytometric analysis (reference value: 9.31%); assay type: functional
# HeLa [30] = experiment: Antitumor activity against human HeLa cells xenografted in nude mouse assessed as reduction in tumor volume administered intraperitomeally once in every 2 days for 15 days; assay type: functional
# HeLa [31] = experiment: Induction of apoptosis in human HeLa cells assessed as early apoptotic cells at 6 uM after 36 hrs by Annexin V-APC/propidium iodide staining-based FACScan flow cytometric analysis (reference value: 2.45%); assay type: functional
# HeLa [32] = experiment: Cell cycle arrest in human HeLa cells assessed as accumulation of cells at G1 phase at 4 uM after 24 hrs by propidium iodide staining-based FACScan flow cytometric analysis (reference value: 62.92%); assay type: functional
compound,measurement,setting,value
CC(C)=CC[C@@H](OC(=O)CCCC[C@@H]1CCSC(c2ccccc2)S1)C1=CC(=O)c2c(O)ccc(O)c2C1=O (stereo not given in full),Activity,HeLa [1],2.31%
same,Activity,HeLa [2],29.9%
same,Activity,HeLa [3],37.5%
same,inhibition,Homo sapiens,Active
same,inhibition,[4],Active
same,inhibition,[5],Active
same,Activity,HeLa [6],85.2%
same,IC50,HEK-293T,88.8 µM
same,Activity,Mus musculus [7],Non-Toxic
same,Activity,HeLa [8],29.06%
same,Activity,Mus musculus [9],Active
same,Activity,HeLa [10],48.9%
same,Activity,HeLa [11],Active
same,Activity,HeLa [12],52.44%
same,Activity,HeLa [13],16.37%
same,Activity,HeLa [14],45.2%
same,Activity,HeLa [15],Active
same,Activity,HeLa [16],3.9%
same,Activity,HeLa [17],32.14%
same,Activity,HeLa [18],Active
same,Activity,HeLa [19],Active
same,inhibition,[20],Active
same,IC50,L02,116 µM
same,inhibition,[21],Active
same,Activity,HeLa [22],Active
same,Activity,HeLa [23],10%
same,Activity,HeLa [24],43.5%
same,inhibition,[25],inactive
same,Activity,HeLa [26],26.1%
same,viability at 6 µM,HeLa [27],48.8%
same,Activity,HeLa [28],10%
same,Activity,HeLa [29],82.2%
same,Activity,HeLa [30],Dose-dependent effect
same,Activity,HeLa [31],45.7%
same,Activity,HeLa [32],25.74%
